Assay results published in the NIST ThermoML archive (doi:10.1016/j.jct.2017.07.013).

Experiment: refractive index (Na D-line) (dimensionless); xn = mol fraction of the nth substance listed
Conditions: 101.3 kPa, Liquid, Standard Abbe refractometry

CCCC[n+]1ccn(C)c1.O=S(=O)([N-]S(=O)(=O)C(F)(F)F)C(F)(F)F + COC(=O)OC
refractive index
Conditions	303.15 K	308.15 K	313.15 K	318.15 K	323.15 K
x1 = 0.0512	1.3757	1.3741	1.3744	1.3724	1.3719
x1 = 0.101	1.3844	1.383	1.3836	1.3819	1.3817
x1 = 0.1495	1.3913	1.39	1.3907	1.3892	1.3893
x1 = 0.1945	1.3965	1.3953	1.3959	1.3946	1.3948
x1 = 0.2994	1.4053	1.4042	1.4042	1.403	1.4033
x1 = 0.3999	1.4106	1.4095	1.4089	1.4077	1.4078
x1 = 0.4976	1.4141	1.4131	1.4119	1.4107	1.4106
x1 = 0.5842	1.4165	1.4155	1.414	1.4128	1.4126
x1 = 0.6886	1.4191	1.4181	1.4166	1.4154	1.4149
x1 = 0.7475	1.4204	1.4195	1.418	1.4168	1.4162
x1 = 0.8014	1.4216	1.4207	1.4193	1.4181	1.4172
x1 = 0.889	1.4233	1.4223	1.4208	1.4196	1.4185
x1 = 0.9526	1.4242	1.423	1.4213	1.4199	1.4183
x1 = 1	1.4245	1.4231	1.421	1.4195	1.4173
